Reference: PubChem BioAssay AID248 (DTP/NCI, 2004)
Toxic doses and inconclusive results are not listed. No stated cut-off is given here; in the data, active means T/C of 150% or more; inactive means T/C below 125%.

Test system: L1210 leukemia ip in BDF1 mice, survival T/C
Test: NCI In Vivo Anticancer Drug Screen. Data for tumor model L1210 Leukemia (intraperitoneal) in B6D2F1 (BDF1) mice
Details: endpoint: mean survival time, higher = longer survival
How it was run: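 Read-out is survival time, reported as the treated-group measurement over the vehicle-control measurement.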

Measured: T/C

NC(=S)Nc1ccccn1
inactive: dose: 25.0 mg/kg/injection, schedule: Q01DX009 (ip), vehicle: saline with Tween-80 103 % of control | dose: 50.0 mg/kg/injection, schedule: Q01DX009 (ip), vehicle: saline with Tween-80 90 % of control | dose: 100.0 mg/kg/injection, schedule: Q01DX009 (ip), vehicle: saline with Tween-80 101 % of control | dose: 100.0 mg/kg/injection, schedule: Q04DX003 (ip), vehicle: saline with Tween-80 98 % of control

CCN1C(=O)C2C3C=CC(C3)C2C1=O (configuration not stated)
inactive: dose: 25.0 mg/kg/injection, schedule: Q04DX003 (ip), vehicle: saline with Tween-80 97 % of control | dose: 50.0 mg/kg/injection, schedule: Q04DX003 (ip), vehicle: saline with Tween-80 104 % of control

CC(C)(C)NC(=O)CCC1C2C=CC(C2)C1C(=O)NC(C)(C)C (configuration not stated)
inactive: dose: 100.0 mg/kg/injection, schedule: Q01DX001 (ip), vehicle: Klucel (hydroxypropylcellulose) (HPC) 97 % of control | dose: 100.0 mg/kg/injection, schedule: Q04DX003 (ip), vehicle: Klucel (hydroxypropylcellulose) (HPC) 101 % of control | dose: 200.0 mg/kg/injection, schedule: Q01DX001 (ip), vehicle: Klucel (hydroxypropylcellulose) (HPC) 92 % of control | dose: 200.0 mg/kg/injection, schedule: Q04DX003 (ip), vehicle: Klucel (hydroxypropylcellulose) (HPC) 97 % of control | dose: 400.0 mg/kg/injection, schedule: Q01DX001 (ip), vehicle: Klucel (hydroxypropylcellulose) (HPC) 98 % of control | dose: 400.0 mg/kg/injection, schedule: Q04DX003 (ip), vehicle: Klucel (hydroxypropylcellulose) (HPC) 107 % of control
